Source: ChEMBL document CHEMBL5260834, “Benzomorphan skeleton, a versatile scaffold for different targets: A comprehensive review” (Eur J Med Chem, 2018)

Key:
[1] = target: T1, Sigma non-opioid intracellular receptor 1 (Cavia porcellus, UniProt Q60492); test: Displacement of [3H]-(+)-pentazocine from sigma1 receptor in guinea pig brain membrane assessed as inhibition constant; type: cell membranes
[2] = target: T2, Sigma intracellular receptor 2 (Rattus norvegicus, UniProt Q5U3Y7); test: Displacement of [3H]DTG from sigma 2 receptor in rat liver membranes assessed as inhibition constant presence of dextrallorphan; type: cell membranes, Membrane
T2 sequence (Q5U3Y7 whole entry): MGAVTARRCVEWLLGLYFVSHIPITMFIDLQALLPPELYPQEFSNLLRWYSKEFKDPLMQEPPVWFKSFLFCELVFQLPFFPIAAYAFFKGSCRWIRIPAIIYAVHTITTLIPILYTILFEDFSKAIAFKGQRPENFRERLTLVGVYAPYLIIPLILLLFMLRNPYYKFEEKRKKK

Mu-type opioid receptor [3] = target: T3, Mu-type opioid receptor (Homo sapiens, UniProt P35372); test: Displacement of [3H]-DAMGO from human MOR receptor assessed as inhibition constant by cheng-prusoff equation assay
[4] = target: T1, Sigma non-opioid intracellular receptor 1; test: Displacement of [3H]-(+)-pentazocine from sigma1 receptor in guinea pig brain membrane assessed as inhibition constant measured after 120 mins by scintillation counting method; type: cell membranes
[5] = Ratio of Ki for displacement of[3H]-DAMGO from human MOR receptor to Ki for displacement of [3H]-(+)-pentazocine from sigma1 receptor in guinea pig brain membrane; type: cell membranes
[6] = target: T4, Sigma intracellular receptor 2 (Homo sapiens, UniProt Q5BJF2); test: Displacement of [3H]DTG from sigma 2 receptor (unknown origin) assessed as inhibition constant
[7] = Ratio of Ki for displacement of [3H]DTG from sigma 2 receptor (unknown origin) to Ki for displacement of [3H]-(+)-pentazocine from sigma1 receptor in guinea pig brain membrane; type: cell membranes
[8] = target: T5, Sigma non-opioid intracellular receptor 1 (Homo sapiens, UniProt Q99720); test: Inhibition of sigma 1 receptor (unknown origin)
[9] = Ratio of Ki for displacement of [3H]DTG from sigma 2 receptor in rat liver membranes assessed as inhibition constant presence of haloperidol by scintillation counting analysis to Ki for displacement of [3H]-(+)-pentazocine from sigma 1 receptor in guinea pig brain membrane assessed as inhibition constant in presence of haloperidol; type: cell membranes
[10] = target: T1, Sigma non-opioid intracellular receptor 1; test: Displacement of [3H]-(+)-pentazocine from sigma1 receptor in guinea pig brain membrane assessed as inhibition constant measured for 150 mins in presence of haloperidol; type: cell membranes
[11] = target: T2, Sigma intracellular receptor 2; test: Displacement of [3H]DTG from sigma 2 receptor in rat liver membranes assessed as inhibition constant presence of haloperidol by scintillation counting analysis; type: cell membranes, Membrane
Mu-type opioid receptor [12] = target: Mu-type opioid receptor (Rattus norvegicus, UniProt P33535); test: Displacement of [ 3H]-naloxone from rat brain membrane mu opioid receptor assessed as inhibition constant by radioligand binding assay; type: cell membranes
[13] = target: T4, Sigma intracellular receptor 2; test: Displacement of [3H]DTG from sigma 2 receptor (unknown origin) assessed as inhibition constant incubated for 120 mins in presence of (+)-SKF10047 by radioligand binding assay
[14] = target: T4, Sigma intracellular receptor 2
Description: Inhibition of sigma 2 receptor (unknown origin)

[15] = target: T4, Sigma intracellular receptor 2; test: Displacement of [3H]DTG from sigma 2 receptor (unknown origin) assessed as inhibition constant in presence of haloperidol measured for 120 mins by scintillation counting analysis
[16] = target: T1, Sigma non-opioid intracellular receptor 1; test: Displacement of [3H]-(+)-pentazocine from sigma1 receptor in guinea pig brain membrane assessed as inhibition constant measured for 150 mins; type: cell membranes
[17] = Ratio of Ki for displacement of [3H]DTG from sigma 2 receptor (unknown origin) assessed as inhibition constant in presence of haloperidol to Ki for displacement of [3H]-(+)-pentazocine from sigma1 receptor in guinea pig brain membrane assessed as inhibition constant; type: cell membranes
[18] = target: T5, Sigma non-opioid intracellular receptor 1; test: Displacement of [3H]-(+)-pentazocine from sigma1 receptor (unknown origin) assessed as inhibition constant
[19] = target: T6, Kappa-type opioid receptor (Homo sapiens, UniProt P41145); test: Displacement of [3H]-U69593 from KOR receptor (unknown origin) assessed as inhibition constant
[20] = target: Delta-type opioid receptor (Homo sapiens, UniProt P41143); test: Displacement of [3H]-Diprenorphine from DOR receptor (unknown origin) assessed as inhibition constant
Mu-type opioid receptor [21] = target: T3, Mu-type opioid receptor; test: Displacement of [3H]-Diprenorphine from MOR receptor (unknown origin) assessed as inhibition constant
[22] = Displacement of 3[H]BTX from rat cerebral cortex sodium channel assessed as inhibition constant; type: tissue-based
[23] = target: Glutathione hydrolase 1 proenzyme (Homo sapiens, UniProt P19440); test: Inhibition of human GGT1
Mus musculus [24] = test: Anticonvulsant activity in mouse assessed as protection against maximal electroshock seizures at 5 mg/kg, sc by maximum electroshock seizure test; type: functional; conditions: read-out: ID50 (the source's name)
[25] = Ratio of Ki for displacement of [3H]-(+)-pentazocine from sigma1 receptor in guinea pig brain membrane assessed as inhibition constant to Ki for displacement of [3H]-(+)-pentazocine from sigma1 receptor in guinea pig brain membrane assessed as inhibition constant; type: cell membranes; design: reference not given here
[26] = target: T5, Sigma non-opioid intracellular receptor 1; test: Agonist activity at sigma1 receptor (unknown origin); conditions: filed as agonist
[27] = target: T6, Kappa-type opioid receptor; test: Displacement of [3H]-diprenorphine from KOR receptor (unknown origin) assessed as inhibition constant in presence of D-Ala-N-MePhe-Gly-ol-enkephalin and D-Ala-DLeu-enkephalin
[28] = target: T4, Sigma intracellular receptor 2; test: Displacement of [3H]DTG from sigma 2 receptor (unknown origin) assessed as inhibition constant in presence of (+)-SKF10047 by radioligand binding assay
Mus musculus [29] = test: Anticonvulsant activity in mouse assessed as protection against maximal electroshock seizures […] by maximum electroshock seizure test; type: functional

Chain of Mu-type opioid receptor (Rattus norvegicus, UniProt P33535) (P33535 whole entry): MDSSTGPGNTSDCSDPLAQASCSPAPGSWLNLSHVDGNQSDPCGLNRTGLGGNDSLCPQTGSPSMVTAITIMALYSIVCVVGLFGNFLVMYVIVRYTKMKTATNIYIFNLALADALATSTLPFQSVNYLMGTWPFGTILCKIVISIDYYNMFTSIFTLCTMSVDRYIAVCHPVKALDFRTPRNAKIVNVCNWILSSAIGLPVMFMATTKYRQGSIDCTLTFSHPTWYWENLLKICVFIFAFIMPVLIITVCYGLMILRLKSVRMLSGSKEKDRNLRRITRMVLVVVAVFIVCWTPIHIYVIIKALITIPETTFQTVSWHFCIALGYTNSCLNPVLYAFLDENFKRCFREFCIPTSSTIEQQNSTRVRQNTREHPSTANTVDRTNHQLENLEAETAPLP
Chain of Delta-type opioid receptor (P41143 whole entry): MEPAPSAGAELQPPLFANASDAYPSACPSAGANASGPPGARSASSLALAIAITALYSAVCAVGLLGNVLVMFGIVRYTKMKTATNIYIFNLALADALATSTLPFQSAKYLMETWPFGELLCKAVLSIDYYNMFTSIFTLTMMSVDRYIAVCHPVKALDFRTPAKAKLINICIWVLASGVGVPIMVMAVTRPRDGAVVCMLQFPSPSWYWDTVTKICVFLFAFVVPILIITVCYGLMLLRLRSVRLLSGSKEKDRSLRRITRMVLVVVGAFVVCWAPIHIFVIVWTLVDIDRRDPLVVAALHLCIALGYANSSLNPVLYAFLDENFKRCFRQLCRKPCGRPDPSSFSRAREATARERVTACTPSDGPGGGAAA
T3 sequence (P35372 whole entry): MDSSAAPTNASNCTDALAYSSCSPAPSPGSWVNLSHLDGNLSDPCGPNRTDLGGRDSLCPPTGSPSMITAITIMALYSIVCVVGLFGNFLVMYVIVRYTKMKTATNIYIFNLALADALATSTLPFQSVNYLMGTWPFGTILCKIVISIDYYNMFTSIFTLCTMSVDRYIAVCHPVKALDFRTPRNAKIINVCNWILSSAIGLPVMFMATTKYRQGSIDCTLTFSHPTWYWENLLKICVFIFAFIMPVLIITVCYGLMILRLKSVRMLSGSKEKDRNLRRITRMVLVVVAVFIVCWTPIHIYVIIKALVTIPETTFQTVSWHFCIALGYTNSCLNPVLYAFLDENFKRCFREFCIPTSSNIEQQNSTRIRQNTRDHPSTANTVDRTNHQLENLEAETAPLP
T5 sequence (Q99720 whole entry): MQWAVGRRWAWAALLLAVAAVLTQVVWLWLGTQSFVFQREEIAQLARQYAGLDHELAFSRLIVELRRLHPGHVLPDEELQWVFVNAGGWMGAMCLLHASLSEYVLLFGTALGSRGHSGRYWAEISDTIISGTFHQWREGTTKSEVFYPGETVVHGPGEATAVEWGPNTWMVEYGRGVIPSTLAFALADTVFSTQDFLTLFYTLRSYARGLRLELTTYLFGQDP
T4 sequence (Q5BJF2 whole entry): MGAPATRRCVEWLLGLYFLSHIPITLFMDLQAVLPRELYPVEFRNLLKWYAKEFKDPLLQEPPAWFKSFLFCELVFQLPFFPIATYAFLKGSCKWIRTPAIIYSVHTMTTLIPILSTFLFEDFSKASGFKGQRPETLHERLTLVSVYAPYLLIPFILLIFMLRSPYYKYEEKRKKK
T6 sequence (P41145 whole entry): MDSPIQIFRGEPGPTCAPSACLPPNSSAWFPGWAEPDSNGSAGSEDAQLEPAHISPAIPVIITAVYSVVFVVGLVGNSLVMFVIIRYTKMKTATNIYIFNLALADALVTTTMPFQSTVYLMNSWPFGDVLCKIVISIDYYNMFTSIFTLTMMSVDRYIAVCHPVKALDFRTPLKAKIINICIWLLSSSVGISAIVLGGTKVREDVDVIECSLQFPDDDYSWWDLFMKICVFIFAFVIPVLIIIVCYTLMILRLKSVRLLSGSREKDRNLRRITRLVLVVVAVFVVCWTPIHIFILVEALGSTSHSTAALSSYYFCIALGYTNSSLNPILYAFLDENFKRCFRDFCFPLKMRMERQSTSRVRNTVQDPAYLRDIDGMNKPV
T1 sequence (Q60492 whole entry): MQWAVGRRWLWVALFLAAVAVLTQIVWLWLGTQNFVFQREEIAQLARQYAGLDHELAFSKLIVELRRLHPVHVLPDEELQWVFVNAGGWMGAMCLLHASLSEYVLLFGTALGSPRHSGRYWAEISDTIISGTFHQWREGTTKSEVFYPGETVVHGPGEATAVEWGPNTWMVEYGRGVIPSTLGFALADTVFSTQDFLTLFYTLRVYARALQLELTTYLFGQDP
Chain of Glutathione hydrolase 1 proenzyme (P19440 1-380 limits assumed): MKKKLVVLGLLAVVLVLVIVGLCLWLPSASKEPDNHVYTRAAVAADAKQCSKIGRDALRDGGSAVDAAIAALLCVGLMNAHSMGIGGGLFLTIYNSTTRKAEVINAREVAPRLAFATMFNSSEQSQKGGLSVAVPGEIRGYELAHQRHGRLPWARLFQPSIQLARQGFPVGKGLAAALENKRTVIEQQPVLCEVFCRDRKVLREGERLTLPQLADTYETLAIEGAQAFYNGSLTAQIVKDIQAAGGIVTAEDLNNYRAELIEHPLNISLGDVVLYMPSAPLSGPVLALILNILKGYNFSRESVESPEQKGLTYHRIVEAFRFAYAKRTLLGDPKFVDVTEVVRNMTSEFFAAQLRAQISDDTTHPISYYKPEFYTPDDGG
Chain of Glutathione hydrolase 1 proenzyme (P19440 381-569 limits assumed): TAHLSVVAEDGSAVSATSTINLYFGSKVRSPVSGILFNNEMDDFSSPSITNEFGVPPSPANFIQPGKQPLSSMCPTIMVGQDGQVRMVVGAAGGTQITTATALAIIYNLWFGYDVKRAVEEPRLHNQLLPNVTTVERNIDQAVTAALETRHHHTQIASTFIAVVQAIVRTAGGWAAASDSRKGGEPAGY

SMILES: CC(C)=CCN1CC[C@@]2(C)c3c(ccc(O)c3Br)C[C@H]1[C@H]2C
- Ki [1]: 2.49 nM
- Ki [2]: 283 nM

SMILES: CC(C)=CCN1CC[C@@]2(C)c3c(ccc(O)c3Cl)C[C@H]1[C@H]2C
- Ki [1]: 2.62 nM
- Ki [2]: 4960 nM

SMILES: C[C@@H]1[C@@H]2Cc3ccc(O)cc3[C@]1(C)CCN2Cc1ccccc1
- Ki (Mu-type opioid receptor [3]): 1610 nM
- Ki [4]: 0.67 nM
- Ratio Ki [5]: 2400
- Ki [6]: 1710 nM
- Ratio Ki [7]: 2600

SMILES: C=CCCCN1CC[C@]2(C)c3cc(O)ccc3C[C@@H]1[C@@H]2C
- Ki [8]: 180 nM

SMILES: CC[C@@H]1[C@@H]2CCN(Cc3ccccc3)[C@@H]1Cc1ccccc12
- Ratio Ki [9]: 34
- Ki [10]: 3.36 nM
- Ki [11]: 115 nM

SMILES: C=CCCCCN1CC[C@]2(C)c3cc(O)ccc3C[C@@H]1[C@@H]2C
- Ki [8]: 80 nM

SMILES: C[C@@H]1[C@@H]2Cc3cc(I)c(O)cc3[C@]1(C)CCN2Cc1ccccc1
- Ki [1]: 231 nM
- Ki [2]: 597 nM

SMILES: C[C@@H]1[C@@H]2Cc3ccc(O)cc3[C@]1(C)CCN2CCNc1ccccc1
- Ki (Mu-type opioid receptor [12]): 79.8 nM
- Ki [10]: 5.9 nM
- Ki [13]: 111 nM

SMILES: C[C@@H]1[C@@H]2Cc3ccc(O)cc3[C@]1(C)CCN2Cc1ccc(F)cc1
- Ki [4]: 1.45 nM

SMILES: CC(C)=CCN1CC[C@@]2(C)c3cc(O)ccc3C[C@H]1[C@H]2C
- Ki (Mu-type opioid receptor [12]): 2370 nM

SMILES: C[C@@H]1[C@@H]2Cc3ccc(O)cc3[C@]1(C)CCN2CCN(C)c1ccccc1
- Ki (Mu-type opioid receptor [12]): 28.8 nM
- Ki [10]: 5.6 nM
- Ki [13]: 124 nM

SMILES: C[C@@H]1[C@@H]2Cc3ccc(O)cc3[C@]1(C)CCN2Cc1ccccc1F
- Ki [4]: 0.97 nM

SMILES: CC(C)=CCN1CCN(c2ccc3c(c2)[C@H]2C[C@@H]3CCN2C(=O)OCc2ccccc2)CC1
- Ki [14]: 23 nM

SMILES: C[C@@H]1[C@@H]2Cc3ccc(N(C)C)cc3[C@]1(C)CCN2Cc1ccccc1
- Ki [15]: 258 nM
- Ki [16]: 1.75 nM
- Ratio Ki [17]: 150

SMILES: C/C=C/CN1CCN(c2ccc3c(c2)[C@H]2C[C@@H]3CCN2C(=O)OCc2ccccc2)CC1
- Ki [14]: 16 nM

SMILES: C=CCN1CC[C@@]2(C)c3cc(O)ccc3C[C@H]1[C@H]2C
- Ki (Mu-type opioid receptor [3]): > 10000 nM
- Ki [18]: 169 nM
- Ki [19]: > 1000 nM
- Ki [20]: > 1000 nM
- Ki (Mu-type opioid receptor [21]): > 1000 nM

SMILES: C[C@@H](CN1CC[C@@]2(C)c3cccc(O)c3C[C@@H]1C2(C)C)OCc1ccccc1 [CROBENETINE]
- Ki [22]: 43 nM
- IC50 [23]: 322 nM
- ED50 (Mus musculus [24]): 6.1 mg/kg

SMILES: C[C@@H]1[C@@H]2Cc3ccc(O)c(Cl)c3[C@]1(C)CCN2Cc1ccccc1
- Ki [1]: 1.72 nM
- Ki [2]: 764 nM
- Ratio Ki [25]: 440

SMILES: COC(=O)[C@@]1(c2ccccc2)C[C@H]1CN1CC[C@@]2(C)c3cc(O)ccc3C[C@H]1[C@H]2C
- Ki [18]: 75 nM
- Ki [19]: > 1000 nM
- Ki [20]: > 1000 nM
- Ki (Mu-type opioid receptor [21]): > 1000 nM

SMILES: C[C@@H]1[C@@H]2Cc3ccc(O)c(Br)c3[C@]1(C)CCN2Cc1ccccc1
- Ki [1]: 1.75 nM
- Ki [2]: 346 nM
- Ratio Ki [25]: 200

SMILES: CC(C)=CCN1CC[C@@]2(C)c3cc(F)ccc3C[C@H]1[C@H]2C
- Ki [15]: 154 nM
- Ki [16]: 1.48 nM
- Ratio Ki [17]: 104

SMILES: COC(=O)[C@]1(c2ccc(Cl)cc2)C[C@@H]1CN1CC[C@]2(C)c3cc(O)ccc3C[C@@H]1[C@@H]2C
- Ki [18]: 1050 nM
- Ki [19]: 0.41 nM
- Ki [20]: > 25000 nM
- Ki (Mu-type opioid receptor [21]): > 25000 nM

SMILES: C[C@@H]1[C@@H]2CCN(Cc3ccccc3)[C@@H]1Cc1ccccc12
- Ratio Ki [9]: 136
- Ki [10]: 0.96 nM
- Ki [11]: 131 nM

SMILES: C[C@@H]1[C@@H]2Cc3ccc(O)cc3[C@]1(C)CCN2CCN1CCOCC1
- Ki (Mu-type opioid receptor [12]): 8170 nM
- Ki [10]: 13.4 nM
- Ki [13]: 300 nM
- ED50 [26]: 0.82 mg/kg

SMILES: C[C@@H]1[C@@H]2Cc3ccccc3[C@]1(C)CCN2CCN1CCCC1
- Ki [27]: 6400 nM
- Ki [18]: 34 nM
- Ki [28]: 42 nM

SMILES: C[C@@H]1[C@@H]2Cc3ccc(N)cc3[C@]1(C)CCN2Cc1ccccc1
- Ki [15]: 832 nM
- Ki [16]: 1.47 nM
- Ratio Ki [17]: 570

SMILES: C[C@@H]1[C@@H]2Cc3ccccc3[C@]1(C)CCN2CCNc1ccccc1
- Ki [27]: 6500 nM
- Ki [18]: 21 nM
- Ki [28]: 144 nM

SMILES: C[C@@H]1[C@@H]2Cc3ccc(O)cc3[C@]1(C)CCN2CCN1CCCC1
- Ki (Mu-type opioid receptor [12]): 3800 nM
- Ki [10]: 7.4 nM
- Ki [13]: 260 nM

SMILES: C[C@@H]1[C@@H]2Cc3ccccc3[C@]1(C)CCN2CCN(C)c1ccccc1
- Ki [27]: > 10000 nM
- Ki [18]: 91 nM
- Ki [28]: 157 nM

SMILES: COC(=O)C1(c2ccccc2)CC1CN1CC[C@@]2(C)c3cc(O)ccc3C[C@H]1[C@H]2C (mixture of isomers)
- Ki [18]: 1380 nM
- Ki [19]: > 1000 nM
- Ki [20]: > 1000 nM
- Ki (Mu-type opioid receptor [21]): > 1000 nM

SMILES: C=CCN1CC[C@]2(C)c3cc(O)ccc3C[C@@H]1[C@@H]2C
- Ki [8]: 3200 nM

SMILES: C[C@@H]1[C@@H]2Cc3ccccc3[C@]1(C)CCN2CCN1CCCCC1
- Ki [27]: > 10000 nM
- Ki [18]: 20 nM
- Ki [28]: 130 nM

SMILES: C=CCCN1CC[C@]2(C)c3cc(O)ccc3C[C@@H]1[C@@H]2C
- Ki [8]: 620 nM

SMILES: CO[C@@H](C)CN1CC[C@@]2(C)c3cccc(O)c3C[C@@H]1C2(C)C
- ED50 (Mus musculus [29]): 1 mg/kg
- Ki [22]: 789 nM
- IC50 [23]: 39 nM

SMILES: COC(=O)[C@]1(c2ccccc2)C[C@@H]1CN1CC[C@]2(C)c3cc(O)ccc3C[C@@H]1[C@@H]2C
- Ki [19]: 240 nM
- Ki [20]: > 25000 nM
- Ki (Mu-type opioid receptor [21]): > 25000 nM

SMILES: COC(=O)[C@]1(c2ccccc2)C[C@@H]1CN1CC[C@@]2(C)c3cc(O)ccc3C[C@H]1[C@H]2C
- Ki [18]: 66.7 nM
- Ki [19]: > 1000 nM
- Ki [20]: > 1000 nM
- Ki (Mu-type opioid receptor [21]): > 25000 nM

SMILES: C[C@@H]1[C@@H]2Cc3ccc(O)cc3[C@]1(C)CCN2CCN1CCCCC1
- Ki (Mu-type opioid receptor [12]): 12000 nM
- Ki [10]: 9.6 nM
- Ki [13]: 114 nM
- ED50 [26]: 0.88 mg/kg

SMILES: CC(C)[C@@H]1[C@@H]2CCN(Cc3ccccc3)[C@@H]1Cc1ccccc12
- Ratio Ki [9]: 4
- Ki [10]: 31.7 nM
- Ki [11]: 133 nM

SMILES: C[C@@H]1[C@@H]2Cc3ccc(O)cc3[C@]1(C)CCN2CCN1CCCCCC1
- Ki (Mu-type opioid receptor [12]): 9130 nM
- Ki [10]: 20.1 nM
- Ki [13]: 151 nM
